Consider eight compounds from the NIST ThermoML archive (doi:10.1021/je050327l).

Numbers after ± are expanded uncertainties.

For this data set the following is noted: Liquid, Ebulliometric method (Recirculating still).

Regarding `CC(C=O)c1ccccc1` (stereo unspecified) [2-phenylpropanal], the vapor or sublimation pressure (in general, the pressure of vapour in equilibrium with the condensed phase) is, setting by setting: (373.1 K) 3.056 ± 0.084 kPa; (423.15 K) 20.97 ± 0.14 kPa.

With `CCCC(=O)O` [butanoic acid], the “vapor or sublimation pressure” value was determined as 9.38 ± 0.13 kPa (373.1 K) and 45.85 ± 0.23 kPa (413.15 K).

Take `C=CC` [propene]: the “vapor or sublimation pressure” value is, setting by setting: (253.05 K) 307.2 ± 2.2 kPa; (293.15 K) 1015.9 ± 4.4 kPa.

Regarding `CCC(=O)O` [propanoic acid], the “vapor or sublimation pressure” value runs as follows: (373.1 K) 23.38 ± 0.23 kPa; (413.15 K) 96.29 ± 0.45 kPa.

Regarding `Oc1ccccc1` [phenol], the “vapor or sublimation pressure” value runs as follows: (373.1 K) 5.529 ± 0.11 kPa; (423.15 K) 39.18 ± 0.2 kPa.

For `COCC(C)O` (stereo unspecified) [1-methoxy-2-propanol], the “vapor or sublimation pressure” value came out at 3.614 ± 0.093 kPa (313.15 K) and 24.18 ± 0.15 kPa (353.15 K).

As to `COC` [dimethyl ether], the “vapor or sublimation pressure” value (253.05 K) is given as 125 ± 1.1 kPa and the “vapor or sublimation pressure” value (293.15 K) came out at 508.1 ± 2.2 kPa.

With `CC[N+](=O)[O-]` [nitroethane], the “vapor or sublimation pressure” value (313.15 K) came to 6.097 ± 0.11 kPa and the “vapor or sublimation pressure” value (353.15 K) was determined as 33.11 ± 0.18 kPa.
